# According to patent US10688093B2, “Methods, compositions, and uses of novel Fyn kinase inhibitors” (priority 2015, dated 2020):
# Target: full-length recombinant human FYN A (Homo sapiens (Human), UniProt P06241)
# Experiment: ADP-Glo Kinase Assay of FYN kinase inhibition
# Format: biochemical
# Details: primary screen, initial compounds
# Method in brief: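 GST-tagged full-length FYN A (baculovirus, Sf9) at 3 pg preincubated 30 min RT with compound (10-point 3-fold series from 10 μM) in Tris pH 7.5/MgCl2 buffer. 12-mer tyrosine peptide plus 12.5 pmol ATP added, 90 min RT; ADP measured by ADP-Glo luminescence, IC50 from dose-response.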
# Sequence of full-length recombinant human FYN A (P06241 whole entry): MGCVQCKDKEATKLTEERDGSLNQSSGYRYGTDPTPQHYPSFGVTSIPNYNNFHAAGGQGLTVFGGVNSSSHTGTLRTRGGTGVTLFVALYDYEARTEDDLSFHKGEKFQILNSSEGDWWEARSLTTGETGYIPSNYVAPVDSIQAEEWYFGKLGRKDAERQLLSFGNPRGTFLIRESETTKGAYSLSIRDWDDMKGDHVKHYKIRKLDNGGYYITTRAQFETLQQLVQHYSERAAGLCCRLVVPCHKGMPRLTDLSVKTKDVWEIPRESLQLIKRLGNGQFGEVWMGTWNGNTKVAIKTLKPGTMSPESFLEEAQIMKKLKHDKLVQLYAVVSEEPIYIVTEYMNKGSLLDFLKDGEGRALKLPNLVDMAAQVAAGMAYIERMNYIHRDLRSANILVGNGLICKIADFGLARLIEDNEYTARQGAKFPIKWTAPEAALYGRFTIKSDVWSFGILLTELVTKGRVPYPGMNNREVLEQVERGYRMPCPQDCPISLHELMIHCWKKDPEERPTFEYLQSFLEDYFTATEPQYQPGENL
row,Compound,IC50 [nM]
1,"COc1ccc(-c2cnc3ccc(-c4ccccc4)nn23)cc1OC [Compound 327, 3-(3,4-dimethoxy-phenyl)-6-phenyl-imidazo[1,2-b]pyridazine]",420
2,"COc1cc(-c2ccc3ncc(-c4cccc(NC(C)=O)c4)n3n2)cc(OC)c1OC [Compound 329, N-[3-[6-(3,4,5-trimethoxyphenyl)imidazo[1,2-b]pyridazin-3-yl]phenyl] acetamide]",3130
3,"COc1cc(-c2ccc3ncc(-c4cccc(NC(C)=O)c4)n3n2)ccc1O [Compound 330, N-[3-[6-(4-hydroxy-3-methoxy-phenyl)imidazo [1,2-b]pyridazin-3-yl]phenyl] acetamide]",93
4,"c1ccc(-c2cnc3ccc(-c4cccnc4)nn23)cc1 [Compound 331, 3-phenyl-6-(3-pyridyl)imidazo [1,2-b]pyridazine]",3840
5,"COc1ccc(-c2cnc3ccc(-c4ccoc4)nn23)cc1OC [Compound 334, 3-(3,4-dimethoxy-phenyl)-6-(3-furyl)imidazo [1,2-b]pyridazine]",983
6,"CC(=O)Nc1cccc(-c2cnc3ccc(-c4ccoc4)nn23)c1 [Compound 335, N-[3-[6-(3-furyl)imidazo [1,2-b]pyridazin-3-yl]phenyl] acetamide]",1260
7,"CN(C)c1ccc(-c2ccc3ncc(-c4ccncc4)n3n2)cc1 [Compound 337, N,N-dimethyl-4-[3-(4-pyridyl)imidazo[1,2-b]pyridazin-6-yl]aniline]",398
8,"Fc1cccc(-c2ccc3ncc(-c4ccncc4)n3n2)c1 [Compound 341, 6-(3-fluorophenyl)-3-(4-pyridyl) imidazo[1,2-b]pyridazine]",356
9,"c1cc(-c2cnc3ccc(-c4ccc5c(c4)OCO5)nn23)ccn1 [Compound 345, 6-(1,3-benzodioxol-5-yl)-3-(4-pyridyl)imidazo [1,2-b]pyridazine]",217
10,"c1cc(-c2cnc3ccc(-c4ccoc4)nn23)ccn1 [Compound 346, 6-(3-furyl)-3-(4-pyridyl)imidazo [1,2-b]pyridazine]",1020
11,"CC(=O)Nc1cccc(-c2cnc3ccc(-c4cccc(Cl)c4)nn23)c1 [Compound 347, N-[3-[6-(3-chlorophenyl)imidazo[1,2-b]pyridazin-3-yl]phenyl] acetamide]",370
12,"OCc1cccc(-c2cnc3ccc(-c4cccc(O)c4)nn23)c1 [Compound 349, 3-[3-[3-(hydroxymethyl)phenyl]imidazo [1,2-b]pyridazin-6-yl]phenol]",954
13,"NC(=O)c1ccc(-c2ccc3ncc(-c4ccccc4)n3n2)cc1 [Compound 350, 4-(3-phenylimidazo [1,2-b]pyridazin-6-yl)benzamide]",2140
14,"Oc1cccc(-c2ccc3ncc(-c4ccc5c(c4)OCO5)n3n2)c1 [Compound 351, 3-[3-(1,3-benzodioxol-5-yl)imidazo[1,2-b]pyridazin-6-yl]phenol]",915
15,"c1ccc(-c2ccc3ncc(-c4cccnc4)n3n2)cc1 [Compound 352, 6-phenyl-3-(3-pyridyl)imidazo [1,2-b]pyridazine]",1940
16,"CC(=O)Nc1cccc(-c2cnc3ccc(-c4cccc(C(C)=O)c4)nn23)c1 [Compound 354, N-[3-[6-(3-acetylphenyl)imidazo[1,2-b]pyridazin-3-yl]phenyl] acetamide]",466
17,"COc1cc(-c2cnc3ccc(-c4ccc(OC)c(OC)c4)nn23)ccc1O [Compound 356, 4-[6-(3,4-dimethoxyphenyl)imidazo[1,2-b]pyridazin-3-yl]-2-methoxy-phenol]",44.5
18,"CS(=O)(=O)Nc1cccc(-c2ccc3ncc(-c4cccs4)n3n2)c1 [Compound 359, N-[3-[3-(2-thienyl)imidazo [1,2-b]pyridazin-6-yl]phenyl] methane-sulfonamide]",1210
19,"c1cncc(-c2ccc3ncc(-c4ccc5c(c4)OCO5)n3n2)c1 [Compound 360, 3-(1,3-benzodioxol-5-yl)-6-(3-pyridyl)imidazo [1,2-b]pyridazine]",688
20,"OCc1ccc(-c2ccc3ncc(-c4cccc(O)c4)n3n2)cc1 [Compound 363, 3-[6-[4-(hydroxymethyl)phenyl]imidazo [1,2-b]pyridazin-3-yl]phenol]",285
21,"COc1cccc(-c2ccc3ncc(-c4ccc(CO)cc4)n3n2)c1 [Compound 365, [4-[6-(3-methoxyphenyl)imidazo[1,2-b]pyridazin-3-yl]phenyl] methanol]",1560
22,"CC(=O)c1cccc(-c2cnc3ccc(-c4ccoc4)nn23)c1 [Compound 367, 1-[3-[6-(3-furyl)imidazo [1,2-b]pyridazin-3-yl]phenyl] ethanone]",3440
23,"NC(=O)c1ccc(-c2ccc3ncc(-c4cccs4)n3n2)cc1 [Compound 368, 4-[3-(2-thienyl)imidazo [1,2-b]pyridazin-6-yl]benzamide]",951
24,"O=C(NCCO)c1cccc(-c2ccc3ncc(-c4ccc5c(c4)OCO5)n3n2)c1 [Compound 369, 3-[3-(1,3-benzodioxol-5-yl)imidazo[1,2-b]pyridazin-6-yl]-N-(2-hydroxyethyl) benzamide]",367
25,"OCc1cccc(-c2ccc3ncc(-c4ccc5c(c4)OCO5)n3n2)c1 [Compound 370, [3-[3-(1,3-benzodioxol-5-yl)imidazo[1,2-b]pyridazin-6-yl]phenyl] methanol]",332
26,"Oc1cccc(-c2cnc3ccc(-c4ccccc4)nn23)c1 [Compound 372, 3-(6-phenylimidazo [1,2-b]pyridazin-3-yl)phenol]",894
27,"OCc1ccc(-c2cnc3ccc(-c4cccc(F)c4)nn23)cc1 [Compound 374, [4-[6-(3-fluorophenyl)imidazo[1,2-b]pyridazin-3-yl]phenyl] methanol]",2960

# The remaining lines, values ahead:
row,IC50 [nM],Compound
1,1330,"COc1ccc(-c2cnc3ccc(-c4ccc(F)cc4)nn23)cc1OC [Compound 328, 3-(3,4-dimethoxy-phenyl)-6-(4-fluorophenyl) imidazo[1,2-b]pyridazine]"
2,255,OCc1ccc(-c2ccc3ncc(-c4ccncc4)n3n2)cc1 [Compound 332]
3,3120,"COc1ccc(-c2cnc3ccc(-c4ccccc4OC)nn23)cc1OC [Compound 333, 3-(3,4-dimethoxy-phenyl)-6-(2-methoxyphenyl) imidazo[1,2-b]pyridazine]"
4,3990,"OCc1cccc(-c2cnc3ccc(-c4ccoc4)nn23)c1 [Compound 336, [3-[6-(3-furyl)imidazo [1,2-b]pyridazin-3-yl]phenyl] methanol]"
5,3040,"CS(=O)(=O)c1ccc(-c2ccc3ncc(-c4cccc(CO)c4)n3n2)cc1 [Compound 338, [3-[6-(4-methylsulfonyl-phenyl)imidazo [1,2-b]pyridazin-3-yl]phenyl] methanol]"
6,3660,"CC(=O)Nc1cccc(-c2ccc3ncc(-c4ccccc4)n3n2)c1 [Compound 339, N-[3-(3-phenylimidazo [1,2-b]pyridazin-6-yl)phenyl] acetamide]"
7,229,"c1ccc(-c2ccc3ncc(-c4ccncc4)n3n2)cc1 [Compound 340, 6-phenyl-3-(4-pyridyl)imidazo [1,2-b]pyridazine]"
8,952,"COc1cccc(-c2ccc3ncc(-c4ccc(OC)c(OC)c4)n3n2)c1 [Compound 342, 3-(3,4-dimethoxy-phenyl)-6-(3-methoxyphenyl) imidazo[1,2-b]pyridazine]"
9,614,"COc1cncc(-c2ccc3ncc(-c4cccc(NC(C)=O)c4)n3n2)c1 [Compound 343, N-[3-[6-(5-methoxy-3-pyridyl)imidazo [1,2-b]pyridazin-3-yl]phenyl] acetamide]"
10,2140,COc1cncc(-c2ccc3ncc(-c4cccc(CO)c4)n3n2)c1 [Compound 344]
11,409,"COc1cccc(-c2ccc3ncc(-c4cccc(NC(C)=O)c4)n3n2)c1 [Compound 348, N-[3-[6-(3-methoxyphenyl)imidazo[1,2-b]pyridazin-3-yl]phenyl] acetamide]"
12,346,"c1cncc(-c2cnc3ccc(-c4cccs4)nn23)c1 [Compound 353, 3-(3-pyridyl)-6-(2-thienyl) imidazo[1,2-b] pyridazine]"
13,1240,"COc1cccc(-c2ccc3ncc(-c4cccc(O)c4)n3n2)c1 [Compound 355, 3-[6-(3-methoxyphenyl)imidazo[1,2-b]pyridazin-3-yl]phenol]"
14,2330,"COc1ccccc1-c1ccc2ncc(-c3cccc(C(C)=O)c3)n2n1 [Compound 357, 1-[3-[6-(2-methoxyphenyl)imidazo[1,2-b]pyridazin-3-yl]phenyl] ethanone]"
15,373,"CC(=O)c1cccc(-c2cnc3ccc(-c4cnn(C)c4)nn23)c1 [Compound 358, 1-[3-[6-(1-methylpyrazol-4-yl)imidazo[1,2-3]pyridazin-3-yl]phenyl] ethanone]"
16,2910,"OCc1ccc(-c2ccc3ncc(-c4cccnc4)n3n2)cc1 [Compound 361, [4-[3-(3-pyridyl)imidazo [1,2-b]pyridazin-6-yl]phenyl] methanol]"
17,3900,COc1ccccc1-c1ccc2ncc(-c3ccc(CO)cc3)n2n1 [Compound 364]
18,221,"COc1cccc(-c2ccc3ncc(-c4ccc(O)c(OC)c4)n3n2)c1 [Compound 366, 2-methoxy-4-[6-(3-methoxyphenyl)imidazo[1,2-b]pyridazin-3-yl]phenol]"
19,210,"CC(=O)Nc1cccc(-c2cnc3ccc(-c4cccs4)nn23)c1 [Compound 371, N-[3-[6-(2-thienyl)imidazo [1,2-b]pyridazin-3-yl]phenyl] acetamide]"
20,1600,"CC(=O)c1cccc(-c2ccc3ncc(-c4cccc(O)c4)n3n2)c1 [Compound 373, 1-[3-[3-(3-hydroxyphenyl)imidazo[1,2-b]pyridazin-6-yl]phenyl] ethanone]"
21,2170,"CC(=O)c1cccc(-c2ccc3ncc(-c4cccc(CO)c4)n3n2)c1 [Compound 375, 1-[3-[3-[3-(hydroxymethyl)phenyl]imidazo [1,2-b]pyridazin-6-yl]phenyl] ethanone]"
22,886,"CC(=O)c1cccc(-c2cnc3ccc(-c4cccc(N(C)C)c4)nn23)c1 [Compound 376, 1-[3-[6-[3-(dimethylamino)phenyl]imidazo [1,2-b]pyridazin-3-yl]phenyl] ethanone]"
